# Counter-ions that a name gives are not always drawn.
# How the values were obtained:
# [1] = system: nerve cells in the hippocampus CA1 region; experiment: rat model for revascularization of vertebral-carotid artery occlusion (4-point ischemia), nerve cell death in hippocampus CA1; format: in vivo; conditions: oral once a day for 6 days
# Description: Seven-week old Crlj:WI male rats (Charles River Laboratories Japan Inc.) were obtained, and they were provided to the experiment after being subjected to quarantine (for 5 days) and acclimatization (for 7 days or more). Throughout the experimentation period, the rats were bred in a breeding chamber maintained under a light-dark cycle (light period under room light: 6:00 AM to 6:00 PM), at a temperature of 23±3° C. and a humidity of 55±15%, and were allowed to freely take in solid feedstuff (CRF-1; Oriental Yeast Co., Ltd.) and drinking water (tap water).
# Pitavastatin and ARICEPT were each suspended in a 0.5% (w/v) aqueous solution of carboxymethylcellulose sodium (hereinafter, CMC-Na, SIGMA), and prepared just before use such that the amount of administration would be 5 mL/kg.
# The day of grouping was counted as the first day of administration, and the test drug was orally administered once a day for 6 days, thus 6 times in total. The normal group and the solvent control group were administered with a 0.5% (w/v) aqueous solution of CMC-Na.
# On the fifth day of administration, 35 mg/kg of pentobarbital sodium (Nembutal (registered trademark) injectable solution, Dainippon Pharmaceutical Co., Ltd.) was intraperitoneally administered to the rats excluding those in the normal group. The right and left alar foramens were exposed from the first cervical spine part under anesthesia, and the vertebral arteries were thermally solidified using a soldering iron, so as to permanently occlude the vertebral arteries on both sides. […]
# The fixated brains were dehydrated, infiltrated and embedded in paraffin, and a section having a thickness 10 μm was produced from the vicinity of Bregma −3.3 mm. […] The number of nerve cells was counted using an image analyzer (Win ROOF V5.6, Mitani Corporation), and the length of CA1 was measured.
# According to the following formula, the number of nerve cells per unit length was determined, and the average value and standard deviation were calculated for each group. […]
# nerve cells = conditions: pitavastatin 3 mg/kg single administration; Non-Patent Document 9; cited from earlier work
Compound,"number of nerve cells in the hippocampus CA1 region (cells/mm) vs solvent control group ([1]; Comparative Example 1, ARICEPT 0.5 mg/kg single administration, FIG. 2)","number of nerve cells in the hippocampus CA1 region (cells/mm) vs solvent control group ([1]; Example 1, ARICEPT 0.5 mg/kg single administration, FIG. 1)","increase in the number of nerve cells, as reported in the literature (nerve cells)","number of nerve cells in the hippocampus CA1 region (cells/mm) vs solvent control group ([1]; Example 1, pitavastatin 3 mg/kg single administration, FIG. 1)"
"COc1cc2c(cc1OC)C(=O)C(CC1CCN(Cc3ccccc3)CC1)C2 (stereo not shown) [ARICEPT, donepezil hydrochloride]",not significant,not significant,,
"O=C([O-])C[C@H](O)C[C@H](O)/C=C/c1c(C2CC2)nc2ccccc2c1-c1ccc(F)cc1.O=C([O-])C[C@H](O)C[C@H](O)/C=C/c1c(C2CC2)nc2ccccc2c1-c1ccc(F)cc1.[Ca+2] [pitavastatin, pitavastatin calcium]",,,presence of significant difference,not significant
